Measurements as given in US12447167B2, “GM-CSF-producing t-cell control agent and Th1/Th2 immune balance regulator” (National Center of Neurology and Psychiatry, priority 2014, dated 2025).

System: GM-CSF-producing CD4-positive memory T-cells
Experiment: GM-CSF-producing CD4-positive memory T-cells in PBMCs of MS patients after single oral dose (FACS)
Assay type: in vivo, human
Conditions: 0.3 mg single oral
Procedure: A single dose of compound 31, which is a synthetic glycolipid of the present invention, described in the first aspect was orally administered to each of 2 MS patients (subjects) shown in Table 2 above after obtainment of informed consent. The dose was set to 0.3 mg per person.
Subsequently, T-cell subfractions were prepared from the peripheral blood of each subject by using the density gradient centrifugation method. First, a total of 20 mL of blood was collected from the vein of each subject 24 hours (1st day), 48 hours (2nd day), 72 hours (3rd day), 168 hours (7th day), and 192 hours (8th day) after the administration of compound 31 by using two 10-mL heparin sodium-containing vacuum blood collection tubes. For a control, 20 mL of blood was similarly collected from the vein of each subject one day before the administration of compound 31.
Hereinafter, peripheral blood mononuclear cells (PBMCs) were collected by the same operation as in Example 1.
The collected PBMCs were stained with antibodies by the following method. First, 10 μL of a solution consisting of 8 μL of PBS containing 0.5% BSA/2 mM EDTA-2Na, 0.5 μL of APC-Cy7-anti-CD3 antibody (BioLegend, Inc.), 0.5 μL of ECD-anti-CD8 antibody (Beckman Coulter, Inc.), and 1 μL of PB-anti-CD45RA antibody (BioLegend, Inc.) was added to 2×10^6 cells of PBMCs, thoroughly mixed by vortexing, and then left on ice for 10 minutes. CD3 is a detection marker of T-cells, and CD3^+ cells indicate being T-cells. Also, CD45RA is a detection marker of naive T-cells, and CD45RA^+ cells indicate being naive T-cells. Also, CD45RA^− cells indicate being memory T-cells. Furthermore, CD8^− cells indicate being CD4^+ cells. 1 mL of PBS containing 0.5% BSA/2 mM EDTA-2Na was added, and after centrifugation at 1500 rpm for 5 minutes, a supernatant was removed by suction. Next, 100 μL of BD FIX buffer (Becton, Dickinson and Company) was added dropwise while vortexed, and then left on ice for 20 minutes. 1 mL of MACS buffer was added again, and after centrifugation at 1500 rpm for 5 minutes, a supernatant was removed by suction. Subsequently, 1 mL of 0.1% saponin was added, and the resultant was left at room temperature under light shielding for 2 minutes.
Subsequently, the resultant was dispensed as 250 μL (I group) and 750 μL (II group), and after centrifugation at 2200 rpm for 5 minutes, a supernatant was removed by suction.
For group I, 11 μL of a solution consisting of 7 μL of 0.1% saponin, 1 μL of PerCP-Cy5.5-anti-mouse IgG1 antibody (BioLegend, Inc.), 1 μL of Alexa 488-anti-mouse IgG1 antibody (BioLegend, Inc.), 1 μL of APC-anti-mouse IgG1 antibody (BioLegend, Inc.), and 1 μL of PE-anti-rat IgG1 antibody (Becton, Dickinson and Company) was added, thoroughly mixed by vortexing, and then left on ice for 10 minutes. […]

## CCCCCCCCCCCCCCCCCCCCCCCC(=O)NC(COC1OC(CO)C(O)C(O)C1O)[C@H](O)C(O)CCCCC (stereo in doubt) [compound 31, (2S,3S,4R)-1-O-(α-D-galactosyl)-2-(N-tetracosanoylamino)-1,3,4-nonanetriol]
After administration vs day-1
  proportion of GM-CSF-producing CD4-positive memory T-cells in PBMCs: decreased
Day 1, GM-CSF-producing CD4-positive memory T-cells in PBMCs, day −1 value 9.64
  Abundance ratio of mCD4T (%): 6.035%
Day 3, day −1 value 9.64
  Abundance ratio of mCD4T (%): 6.76%
Day 7, day −1 value 9.64
  Abundance ratio of mCD4T (%): 14.325%
